The target of the test is T1, human STCH, GST-STCH fusion protein representing STCH codons 4-471 (SEQ ID NO: 2) (Homo sapiens, UniProt P48723).
T1 construct: near full-length GST-STCH fusion protein, representing STCH codons 4-471; made in house; host or cells: E. coli HB101
T1 sequence (P48723 4-471): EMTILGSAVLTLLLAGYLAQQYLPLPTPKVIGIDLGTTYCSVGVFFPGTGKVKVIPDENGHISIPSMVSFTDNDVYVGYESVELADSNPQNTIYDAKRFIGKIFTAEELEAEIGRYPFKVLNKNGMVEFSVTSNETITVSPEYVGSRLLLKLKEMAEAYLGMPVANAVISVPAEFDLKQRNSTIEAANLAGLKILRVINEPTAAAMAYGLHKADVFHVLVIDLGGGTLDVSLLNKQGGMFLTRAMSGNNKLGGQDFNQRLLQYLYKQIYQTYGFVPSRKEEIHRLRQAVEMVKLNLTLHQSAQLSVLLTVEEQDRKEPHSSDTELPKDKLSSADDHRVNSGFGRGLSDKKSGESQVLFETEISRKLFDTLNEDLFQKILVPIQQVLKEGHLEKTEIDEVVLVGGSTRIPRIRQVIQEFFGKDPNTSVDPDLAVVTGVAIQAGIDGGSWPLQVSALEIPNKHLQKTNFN
As to the kind of experiment: ATPase assay of purified GST-STCH fusion protein. As to conditions: read-out: Km for the unstimulated STCH ATPase (ATP); unstimulated (no peptide), 37° C., recombinant GST-STCH codons 4-471. It is filed as biochemical. As for the experimental part:
Inspection of the primary amino acid sequence of the STCH product predicts a functional ATPase molecule. ATPase activity was tested using a GST -Stch plasmid that encoded a functional fusion protein including STCH codons 4-471 (See Table II and SEQ ID NO: 1). A preferred strategy for preparing this fusion protein is provided in Example III and a preferred strategy for performing ATPase assays is provided in Example VI. To exclude contaminating sources of ATPase, the GST leader peptide and the GST-STCH affinity-purified fusion proteins were eluted off glutathione--Sepharose beads, then purified by anion-exchange chromatography (mono Q) and the protein composition of the column fractions was analyzed by SDS--PAGE. The peak ATPase activity of the GST --STCH product coincided with fractions 11 and 12. While no measurable ATPase activity was detected in fractions 11 and 12 from the GST leader sequence. These fractions were pooled from the GST--STCH sample and ATPase activity was measured in the presence or absence of two different peptides. […] The Km for the unstimulated STCH ATPase was 2-3 μM ATP and the measured ATPase activity was linear with respect to time and concentration over the range tested. […]

We go through 1 compound from US5646249A, “Isolation and characterization of a novel chaperone protein” (The United States of America as represented by the …, priority 1994, dated 1997).

With `Nc1ncnc2c1ncn2[C@@H]1O[C@H](COP(=O)(O)OP(=O)(O)OP(=O)(O)O)[C@@H](O)[C@H]1O` [ATP], the Km (usually the concentration of substrate that gives half-maximal velocity) lay in the range of 2 to 3 µM.
